# Measured values published in US20230053540A1, “TREATMENT OF LIVER INJURY” (Massachusetts Institute of Technology, priority 2019, published 2023).
# System: hepatocytes
# Experiment: Seq-Well scRNA-Seq of hepatocytes after APAP overdose (signature scores, DEG vs untreated)
# Format: in vivo, mouse
# Details: cluster A48 (APAP, 48 h)
smiles,measurement,value
"CC(=O)Nc1ccc(O)cc1 [APAP, acetaminophen]",avg_logFC Cyp4a10,1.157
same,avg_logFC Cyp4a14,1.488
same,avg_logFC Dbp,0.2929
same,avg_logFC Dcxr,0.3518
same,avg_logFC Ddb1,0.3373
same,avg_logFC Decr1,0.5941
same,avg_logFC Decr2,0.4308
same,avg_logFC Dhrs4,0.342
same,avg_logFC Ech1,0.5251
same,avg_logFC Echs1,0.4926
same,avg_logFC Eef1d,0.2745
same,avg_logFC Ephx2,0.4864
same,avg_logFC Esrra,0.2518
same,avg_logFC Etfb,0.3542
same,avg_logFC Etnppl,0.6045
same,avg_logFC F2,0.3767
same,avg_logFC F10,0.3879
same,avg_logFC F12,0.385
same,avg_logFC Fah,0.3039
same,avg_logFC Fam195a,0.3544
same,avg_logFC Fcgrt,0.4314
same,avg_logFC Fth1,0.4342
same,avg_logFC G0s2,0.4232
same,avg_logFC Gabarap,0.4376
same,avg_logFC Galk1,0.2686
same,avg_logFC Gcdh,0.306
same,avg_logFC Gchfr,0.3676
same,avg_logFC Ggnbp2,0.2821
same,avg_logFC Glrx5,0.3308
same,avg_logFC Gltscr2,0.3759
same,avg_logFC Gm6484,0.3759
same,avg_logFC Gsta2,0.2734
same,avg_logFC Gsto1,0.3392
same,avg_logFC Gstt2,0.3234
same,avg_logFC Gstt3,0.3834
same,avg_logFC Gys2,0.4182
same,avg_logFC Hdac11,0.3963
same,avg_logFC Herpud1,0.5965
same,avg_logFC Hmgcl,0.619
same,avg_logFC Hmgcs2,0.8196
same,avg_logFC Hrg,0.436
same,avg_logFC Hsd17b10,0.4452
same,avg_logFC Hsd17b13,0.6427
same,avg_logFC Ifnar2,0.2833
same,avg_logFC Khk,0.5338
same,avg_logFC Lamp1,0.3377
same,avg_logFC Lcat,0.4733
same,avg_logFC Lims2,0.3931
same,avg_logFC Lipa,0.3277
same,avg_logFC Mat1a,0.6585
same,avg_logFC Mfsd2a,0.5827
same,avg_logFC Mgll,0.3192
same,avg_logFC Mia3,0.3374
same,avg_logFC Mlycd,0.4637
same,avg_logFC Mrpl43,0.2692
same,avg_logFC Ndrg2,0.3498
same,avg_logFC Ndufb2,0.407
same,avg_logFC Ndufb10,0.3471
same,avg_logFC Ndufs7,0.2882
same,avg_logFC Ninj1,0.3542
same,avg_logFC Nr1i3,0.5739
same,avg_logFC Oaf,0.5619
same,avg_logFC Pabpc1,0.5116
same,avg_logFC Park7,0.403
same,avg_logFC Pbld1,0.3989
same,avg_logFC Pbld2,0.3619
same,avg_logFC Pigr,0.4224
same,avg_logFC Pitpnb,0.2726
same,avg_logFC Plin5,0.3264
same,avg_logFC Pnpla2,0.3457
same,avg_logFC Ppara,0.3442
same,avg_logFC Prodh2,0.5179
same,avg_logFC Rabac1,0.3343
same,avg_logFC Rbp4,0.5139
same,avg_logFC Rdh7,0.5575
same,avg_logFC Reep6,0.5902
same,avg_logFC Retsat,0.8734
same,avg_logFC Rgs16,0.3803
same,avg_logFC Rpl4,0.3744
same,avg_logFC Rpl38,0.3455
same,avg_logFC Scand1,0.2581
same,avg_logFC Sco2,0.317
same,avg_logFC Sdhc,0.4334
same,avg_logFC Sdhd,0.4849
same,avg_logFC Sec14l2,0.389
same,avg_logFC Serpina1d,0.3563
same,avg_logFC Serpinf1,0.3954
same,avg_logFC Serping1,0.4435
same,avg_logFC Sh3glb1,0.3259
same,avg_logFC Shmt1,0.3827
same,avg_logFC Slc10a1,0.4562
same,avg_logFC Slc25a10,0.4539
same,avg_logFC Slc25a20,0.4208
same,avg_logFC Slc25a47,0.5249
same,avg_logFC Slc27a2,0.3146
same,avg_logFC Slc27a5,0.41
same,avg_logFC Slc37a4,0.4211
same,avg_logFC Slc40a1,0.332
same,avg_logFC Slco1a4,0.5466
same,avg_logFC Smlr1,0.3065
same,avg_logFC Snord118,0.5286
